Laboratory results published in publication PMC6364133, “Selectivity of Dietary Phenolics for Inhibition of Human Monoamine Oxidases A and B” (BioMed Research International, 2019).
Where two headings read alike, the source gives them in different places.

Columns and labels:
[1] = target: T1, MAO-A (Homo sapiens, UniProt P21397); experiment: Inhibition mechanism studies (competition, time dependence) with MAO-A; assay type: biochemical; settings: 1 μM, preincubation 0-60 min, then kynuramine 20 μM
T1 construct: purchased BD Biosciences (San Jose, CA) or Corning Discovery Labware (Woburn, MA)
T1 sequence (P21397 1-527): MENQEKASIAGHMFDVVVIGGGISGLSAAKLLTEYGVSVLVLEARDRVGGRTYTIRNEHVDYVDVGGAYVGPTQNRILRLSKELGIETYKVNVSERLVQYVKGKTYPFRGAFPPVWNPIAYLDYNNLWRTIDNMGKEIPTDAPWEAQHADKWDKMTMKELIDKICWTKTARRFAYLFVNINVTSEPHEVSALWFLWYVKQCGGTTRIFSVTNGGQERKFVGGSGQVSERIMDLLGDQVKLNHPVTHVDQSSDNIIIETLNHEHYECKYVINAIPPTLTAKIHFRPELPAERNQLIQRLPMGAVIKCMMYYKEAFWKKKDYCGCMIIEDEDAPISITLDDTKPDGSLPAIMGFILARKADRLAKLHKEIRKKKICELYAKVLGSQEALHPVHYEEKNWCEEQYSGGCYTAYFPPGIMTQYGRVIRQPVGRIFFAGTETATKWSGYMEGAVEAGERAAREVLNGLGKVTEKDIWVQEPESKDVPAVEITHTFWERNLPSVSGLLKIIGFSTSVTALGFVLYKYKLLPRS

[2] = parameters: method as in earlier work; settings: cited from earlier work
[3] = target: T1, MAO-A; experiment: MAO-A inhibition, kynuramine to 4-hydroxyquinoline, HPLC-fluorescence; assay type: biochemical; settings: for MAO-A inhibition (Figure 6): 15 µM test compound (clorgyline 1 µM, selegiline 0.5 µM); for MAO-A inhibition (Figure 6) / MAO-A Hill coefficient / IC50: kynuramine 10 µM, 15 min; for inhibition of MAO-A activity in screening: highest expected luminal concentration: curcumin 140, guaiacol 435, isoeugenol 110, pterostilbene 270, resveratrol 94, zingerone 51 µM, p < 0.05 vs control; for MAO-A Hill coefficient / IC50: MAO-A 0.01 mg/mL; for Selectivity Index: ratio of MAO-B IC50/MAO-A IC50
[4] = target: T2, MAO-B (Homo sapiens, UniProt P27338); experiment: MAO-B inhibition, kynuramine to 4-hydroxyquinoline, HPLC-fluorescence; assay type: biochemical
T2 construct: purchased BD Biosciences (San Jose, CA) or Corning Discovery Labware (Woburn, MA)
T2 sequence (P27338 1-520): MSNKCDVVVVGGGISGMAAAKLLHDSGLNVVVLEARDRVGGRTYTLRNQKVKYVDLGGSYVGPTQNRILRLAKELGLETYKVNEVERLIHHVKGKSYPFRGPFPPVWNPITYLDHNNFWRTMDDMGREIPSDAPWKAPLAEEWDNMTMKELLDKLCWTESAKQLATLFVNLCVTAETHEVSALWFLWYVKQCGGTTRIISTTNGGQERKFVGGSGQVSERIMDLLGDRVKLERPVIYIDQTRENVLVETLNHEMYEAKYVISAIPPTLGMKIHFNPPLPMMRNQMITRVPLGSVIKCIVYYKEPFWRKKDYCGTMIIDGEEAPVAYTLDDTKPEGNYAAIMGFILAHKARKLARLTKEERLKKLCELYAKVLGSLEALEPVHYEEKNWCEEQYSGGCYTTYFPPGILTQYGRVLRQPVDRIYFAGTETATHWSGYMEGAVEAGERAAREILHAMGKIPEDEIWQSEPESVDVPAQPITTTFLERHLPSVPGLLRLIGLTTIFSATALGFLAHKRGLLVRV

[5] = tested on: MAO-A in mouse brain; settings: after p.o. administration; cited from earlier work
[6] = tested on: MAO-B in mouse brain; settings: after p.o. administration; cited from earlier work
[7] = target: MAO-B in rat brain; parameters: method as in PMID 15120460; settings: cited from earlier work
[8] = tested on: MAO-A; settings: cited from earlier work
[9] = target: T1, MAO-A; experiment: Kynuramine oxidative deamination kinetics (saturation, optimization) with MAO-A; assay type: biochemical; settings: mean ± SEM
Method: (§1) The optimized incubation time and human recombinant MAO concentration were selected in the linear range from the time-dependent and MAO concentration-dependent studies (Supplemental Data). Briefly, samples were prepared in potassium phosphate buffer (100 mM, pH 7.4) with a final concentration of MAO in the reaction solution of 0.01 mg/mL, incubated at 37°C for 15 min. Saturation of kynuramine metabolism with MAO-A/B was carried out at concentrations of 2, 5, 10, 25, 50, 100, 250, 500 μM. The enzymatic reactions (200μL) were stopped by 2 N NaOH (75 μL) followed with 70% perchloric acid (25 μL). The samples were vortexed and centrifuged for 5 min at 10,000×g. The supernatant was analyzed by HPLC as described above.
(§2) GraphPad Prism 5 was applied to fit a Michaelis-Menten model to the data to obtain the Km values in the saturation experiments. In the screening experiments, significant differences between control and treated group were determined by a one-way ANOVA followed by Dunnett's posttest (p < 0.05). […] The maximum single doses are from published sources. The relevant GI concentration is the lesser of either solubility or the concentration after a single dose.
(§3) Kynuramine (2 to 500 μM) was incubated in 200 μL potassium phosphate buffer (100 mM, pH 7.4) for 15 min with MAO-A or MAO-B (0.01 mg/mL). Michaelis-Menten model was used to fit the data by GraphPad Prism 5. The experiments were conducted 3 times in triplicate. Single representative experiments are shown. […]
(§4) Table S7. Sample Processing Stability for 4-Hydroxyquinoline […]
(§5) B. Optimization of Enzyme Incubations […]
(§6) Kynuramine (10 µM) was incubated with MAO-A (0.01 mg/mL) in 200 µL potassium phosphate buffer (100 mM, pH 7.4) for 10, 20, 30, 40, and 60 min. The formation of 4-hydroxyquinoline was analyzed after the enzymatic reaction. […]

[10] = target: T2, MAO-B; experiment: Kynuramine oxidative deamination kinetics (saturation, optimization) with MAO-B; assay type: biochemical; settings: mean ± SEM
Method: as §1, §2, §3, §4, §5, §6

[11] = tested on: MAO-B; settings: cited from earlier work
[12] = tested on: human MAO-A; parameters: method as in PMID 15095350; settings: cited from earlier work
[13] = tested on: human MAO-B; parameters: method as in PMID 15095350; settings: cited from earlier work
[14] = target: MAO-A in rat brain; settings: cited from earlier work
[15] = 15 µM test compound (clorgyline 1 µM, selegiline 0.5 µM), kynuramine 10 µM, 15 min
[16] = highest expected luminal concentration: curcumin 140, guaiacol 435, isoeugenol 110, pterostilbene 270, resveratrol 94, zingerone 51 µM, p < 0.05 vs control
[17] = kynuramine 10 µM, MAO-B 0.01 mg/mL, 15 min

## N[C@@H]1C[C@H]1c1ccccc1 (racemic) [tranylcypromine]
[1]
  plateau inhibition, MAO-A: 48%

## Oc1ccnc2ccccc12 [4-hydroxyquinoline]
[2]
  estimated most acidic pKa: 4.3
  estimated most basic pKa: 11.1

## O=c1cc(-c2ccccc2)oc2cc(O)cc(O)c12 [chrysin]
[3]
  MAO-A inhibition (Figure 6): inhibited both enzymes
[4]; [15]
  MAO-B inhibition (Figure 6): inhibited both enzymes

## COc1cc(/C=C/C(=O)CC(=O)/C=C/c2ccc(O)c(OC)c2)ccc1O [curcumin]
[3]
  inhibition of MAO-A activity in screening: significantly inhibited
  MAO-A Hill coefficient: 2.0 ± 0.4
[4]; [16]
  inhibition of MAO-B activity in screening: significantly inhibited
[4]; [17]
  MAO-B Hill coefficient: 1.7 ± 0.1
[5]
  MAO-A inhibition in mouse brain: inhibits
[6]
  MAO-B inhibition in mouse brain: inhibits

## Cc1cc(O)c2c(c1)C(=O)c1cc(O)cc(O)c1C2=O [emodin]
[7]
  Ki: 15.1 µM
  mode of inhibition, MAO-B: mixed mode

## COc1ccccc1O [guaiacol]
[3]
  inhibition of MAO-A activity in screening: significantly inhibited
  IC50: 131 ± 6 µM
  Selectivity Index: 2.46
[4]; [16]
  inhibition of MAO-B activity in screening: significantly inhibited
[4]; [17]
  IC50: 322 ± 27 µM

## O=c1c(O)c(-c2ccc(O)cc2)oc2cc(O)cc(O)c12 [kaempferol]
[8]
  MAO-A inhibition: selective MAO-A inhibitor

## NCCC(=O)c1ccccc1N [kynuramine]
[9]; kynuramine 10 µM, MAO-A 0.01 mg/mL, 10-60 min
  rate of 4-hydroxyquinoline formation, time-dependent study, MAO-A: 3.28 ± 0.09 nmol/mg/min
[9]; kynuramine 10 µM, MAO-A 0.003-0.03 mg/mL, 15 min
  rate of 4-hydroxyquinoline formation, MAO concentration-dependent study, MAO-A: 3.06 ± 0.03 nmol/mg/min
[9]; kynuramine 2-500 μM, 15 min
  Vmax, MAO-A: 10.2 ± 0.2 nmol/min/mg
[10]; kynuramine 10 µM, MAO-B 0.01 mg/mL, 10-60 min
  rate of 4-hydroxyquinoline formation, time-dependent study, MAO-B: 2.70 ± 0.07 nmol/mg/min
[10]; kynuramine 10 µM, MAO-B 0.003-0.03 mg/mL, 15 min
  rate of 4-hydroxyquinoline formation, MAO concentration-dependent study, MAO-B: 3.66 ± 0.08 nmol/mg/min
[10]; kynuramine 2-500 μM, 15 min
  Vmax, MAO-B: 7.35 ± 0.69 nmol/min/mg
[8]
  Km: 44.1 µM
[11]
  Km: 90 µM
[12]
  Km: 42 µM
[13]
  Km: 26 µM
[2]
  estimated most basic pKa: 8.4

## COc1ccc(C(C)=O)c(O)c1 [paeonol]
[14]
  Ki: 51.1 µM
  mode of inhibition, MAO-A: non-competitive
[7]
  Ki: 38.2 µM
  mode of inhibition, MAO-B: competitive

## O=C(/C=C/C=C/c1ccc2c(c1)OCO2)N1CCCCC1 [piperine]
[14]
  Ki: 35.8 µM
  mode of inhibition, MAO-A: mixed
[7]
  Ki: 79.9 µM
  mode of inhibition, MAO-B: competitive

## COc1cc(/C=C/c2ccc(O[C@@H]3O[C@H](CO)[C@@H](O)[C@H](O)[C@H]3O)cc2)cc(OC)c1 [pterostilbene 4'-glucoside]
[4]; [15]
  MAO-B inhibition (Figure 6): failed to inhibit

## O=c1c(O)c(-c2ccc(O)c(O)c2)oc2cc(O)cc(O)c12 [quercetin]
[8]
  MAO-A inhibition: inhibitor
[11]
  MAO-B inhibition: inhibitor

## OC[C@H]1O[C@@H](Oc2cc(O)cc(/C=C/c3ccc(O)cc3)c2)[C@H](O)[C@@H](O)[C@@H]1O [resveratrol 3-glucoside]
[4]
  MAO-B inhibition (Figure 6): failed to inhibit

## OC[C@H]1O[C@@H](Oc2ccc(/C=C/c3cc(O)cc(O)c3)cc2)[C@H](O)[C@@H](O)[C@@H]1O [resveratrol 4'-glucoside]
[3]
  MAO-A inhibition (Figure 6): inhibited MAO-A
[4]; [15]
  MAO-B inhibition (Figure 6): failed to inhibit

## COc1cc(CCC(C)=O)ccc1O [zingerone]
[3]
  inhibition of MAO-A activity in screening: only inhibited MAO-A
  IC50: 16.3 ± 1.1 µM
[4]; 51 µM (GI concentration expected from maximum single dose)
  inhibition at 51 µM: < 10%

## isoeugenol
[3]
  inhibition of MAO-A activity in screening: significantly inhibited
  MAO-A Hill coefficient: 1.2 ± 0.1
  Selectivity Index: 27.4
[4]
  inhibition of MAO-B activity in screening: significantly inhibited
[4]; [17]
  MAO-B Hill coefficient: 2.4 ± 0.3
